What was measured:
Format in all cases: in vivo
Conditions in all cases: 1000 g/ha, evaluated after 13 days
[1] = test system: Triticum aestivium (TRZAW); experiment: Pre-emergence herbicidal activity, Triticum aestivium; set-up: key: 5=total damage to plant; 0=no damage to plant
Experimental: (§1) Seeds of a variety of test species were sown in standard soil in pots: Triticum aestivium (TRZAW), Avena fatua (AVEFA), Alopecurus myosuroides (ALOMY), Echinochloa crus-galli (ECHCG), Lolium perenne (LOLPE), Zea Mays (ZEAMX), Abutilon theophrasti (ABUTH), Amaranthus retroflexus (AMARE) and Setaria faberi (SETFA). After cultivation for one day (pre-emergence) under controlled conditions in a glasshouse (at 24/16° C., day/night; 14 hours light; 65% humidity), the plants were sprayed with an aqueous spray solution derived from the formulation of the technical active ingredient in acetone/water (50:50) solution containing 0.5% Tween 20 (polyoxyethelyene sorbitan monolaurate, CAS RN 9005-64-5). The test plants were then grown in a glasshouse under controlled conditions (at 24/16°, day/night; 14 hours light; 65% humidity) and watered twice daily. After 13 days, the test was evaluated (5=total damage to plant; 0=no damage to plant).

[2] = test system: Avena fatua (AVEFA); experiment: Pre-emergence herbicidal activity, Avena fatua; set-up: key: 5=total damage to plant; 0=no damage to plant
Experimental: as §1

[3] = test system: Alopecurus myosuroides (ALOMY); experiment: Pre-emergence herbicidal activity, Alopecurus myosuroides; set-up: key: 5=total damage to plant; 0=no damage to plant
Experimental: as §1

[4] = test system: Echinochloa crus-galli (ECHCG); experiment: Pre-emergence herbicidal activity, Echinochloa crus-galli
Experimental: as §1

[5] = test system: Lolium perenne (LOLPE); experiment: Pre-emergence herbicidal activity, Lolium perenne; set-up: key: 5=total damage to plant; 0=no damage to plant
Experimental: as §1

[6] = test system: Setaria faberi (SETFA); experiment: Pre-emergence herbicidal activity, Setaria faberi; set-up: key: 5=total damage to plant; 0=no damage to plant
Experimental: as §1

[7] = test system: Triticum aestivium (TRZAW); experiment: Post-emergence herbicidal activity, Triticum aestivium; set-up: key: 5=total damage to plant; 0=no damage to plant
Experimental: (§2) Seeds of a variety of test species were sown in standard soil in pots: Triticum aestivium (TRZAW), Avena fatua (AVEFA), Alopecurus myosuroides (ALOMY), Echinochloa crus-galli (ECHCG), Lolium perenne (LOLPE), Zea Mays (ZEAMX), Abutilon theophrasti (ABUTH), Amaranthus retroflexus (AMARE) and Setaria faberi (SETFA). After 8 days cultivation (post-emergence) under controlled conditions in a glasshouse (at 24/16° C., day/night; 14 hours light; 65% humidity), the plants were sprayed with an aqueous spray solution derived from the formulation of the technical active ingredient in acetone/water (50:50) solution containing 0.5% Tween 20 (polyoxyethelyene sorbitan monolaurate, CAS RN 9005-64-5). The test plants were then grown in a glasshouse under controlled conditions (at 24/16° C., day/night; 14 hours light; 65% humidity) and watered twice daily. After 13 days, the test was evaluated (5=total damage to plant; 0=no damage to plant).

[8] = test system: Avena fatua (AVEFA); experiment: Post-emergence herbicidal activity, Avena fatua
Experimental: as §2

[9] = test system: Alopecurus myosuroides (ALOMY); experiment: Post-emergence herbicidal activity, Alopecurus myosuroides; set-up: key: 5=total damage to plant; 0=no damage to plant
Experimental: as §2

[10] = test system: Echinochloa crus-galli (ECHCG); experiment: Post-emergence herbicidal activity, Echinochloa crus-galli; set-up: key: 5=total damage to plant; 0=no damage to plant
Experimental: as §2

[11] = test system: Lolium perenne (LOLPE); experiment: Post-emergence herbicidal activity, Lolium perenne
Experimental: as §2

[12] = test system: Setaria faberi (SETFA); experiment: Post-emergence herbicidal activity, Setaria faberi; set-up: key: 5=total damage to plant; 0=no damage to plant
Experimental: as §2

SMILES	Control of TRAZW after pre-emergence application (score 0-5) [1]	Control of AVEFA after pre-emergence application (score 0-5) [2]	Control of ALOMY after pre-emergence application (score 0-5) [3]	Control of ECHCG after pre-emergence application (score 0-5) [4]	Control of LOLPE after pre-emergence application (score 0-5) [5]	Control of SETFA after pre-emergence application (score 0-5) [6]	Control of TRAZW after post-emergence application (score 0-5) [7]	Control of AVEFA after post-emergence application (score 0-5) [8]	Control of ALOMY after post-emergence application (score 0-5) [9]	Control of ECHCG after post-emergence application (score 0-5) [10]	Control of LOLPE after post-emergence application (score 0-5) [11]	Control of SETFA after post-emergence application (score 0-5) [12]
C=CCN(C(=O)OC(C)(C)C)c1ccc(-c2cncnc2)nc1C(F)(F)F [Compound B35]	0	0	0	2	1	4	1	2	0	3	2	5
O=C(NCc1ccc(Cl)cc1)Nc1ccc(-c2cncc(F)c2)nc1C(F)(F)F [Compound B38]	0	0	0	1	0	3	0	2	0	2	2	4
O=C(Nc1ccc(-c2cncc(F)c2)nc1C(F)(F)F)N1CCOCC1 [Compound B39]	0	3	0	4	1	5	1	4	1	5	3	5
CC(C)c1cc(NC(=O)Nc2ccc(-c3cncc(F)c3)nc2C(F)(F)F)on1 [Compound B40]	0	0	0	1	1	1	0	2	0	1	1	3

— patent US20210127673A1, “HERBICIDES” (SYNGENTA PARTICIPATIONS AG, priority 2016, published 2021)
